Ends that are not written are not given here.
What was measured:
[1] = system: secreted epimorphin in PT67-TE cell culture supernatant; experiment: Reference Example 2: secreted epimorphin in PT67-TE cell culture supernatant (Western blotting); format: cell-based; conditions: 0.01 or 0.025 volume % oleic acid in DH10 medium, 3 days
Protocol: (§1) The HaCaT-TE cells obtained in Production Example 1 or the PT67-TE cells obtained in Production Example 2 were cultured in DH10 medium (Experiment No. 4), in DH10 medium containing 0.01 volume % oleic acid (Experiment No. 5), or in DH10 medium containing 0.025 volume % oleic acid (Experiment No. 6) in a 5 volume % carbon dioxide atmosphere at 37° C. for 3 days. The HaCaT-TE cells obtained in Production Example 1 or the PT67-TE cells obtained in Production Example 2 were irradiated with ultraviolet light B (UVB) at a dose of 10 mJ/cm^2, and then cultured in DH10 medium in a 5 volume % carbon dioxide atmosphere at 37° C. for 3 days (Experiment No. 7). The obtained culture was centrifuged (at 1000×g for 30 minutes) to obtain a culture supernatant. Using an anti-T7 tag antibody (produced by Novagen) and protein G Sepharose beads (produced by GE Healthcare), secreted epimorphin was collected from the obtained culture supernatant. The collected secreted epimorphin was subjected to Western blotting. Using an HRP-labeled anti-T7 tag antibody (produced by Novagen), the relationship between oleic acid and the amount of secreted epimorphin in each of the HaCaT-TE cell culture supernatant and the PT67-TE cell culture supernatant was investigated.

[2] = system: endogenous epimorphin in HaCaT cells; experiment: Reference Example 1: Western blotting of endogenous epimorphin in HaCaT cells; format: cell-based, human; conditions: 0.01 or 0.025 volume % oleic acid in DH10 medium, 3 days
Protocol: HaCaT cells were cultured in a 5 volume % carbon dioxide atmosphere at 37° C. for 3 days in DH10 medium (Experiment No. 1), in DH10 medium containing 0.01 volume % oleic acid (Experiment No. 2), or in DH10 medium containing 0.025 volume % oleic acid (Experiment No. 3). The cultured cells were isolated and the obtained cells were dissolved in a solubilizing reagent (composition: 2 volume % SDS, 10 volume % glycerol, 5 volume % 2-mercaptoethanol, 0.008 volume % bromophenol blue, and 0.65 M tris-HCl buffer (pH about 6.8)) to obtain a cell extract. Western blotting was performed using the obtained cell extract and an anti-epimorphin antibody (produced by R & D Systems), and the relationship between oleic acid and the level of expression of endogenous epimorphin in HaCaT cells was investigated. The relationship between oleic acid and the level of expression of β-actin in HaCaT cells was also investigated in the same manner as above except that an anti-β-actin antibody was used in place of the anti-epimorphin antibody.

[3] = system: secreted epimorphin in HaCaT-TE cell culture supernatant; experiment: Reference Example 2: secreted epimorphin in HaCaT-TE cell culture supernatant (Western blotting); format: cell-based, human; conditions: 0.01 or 0.025 volume % oleic acid in DH10 medium, 3 days
Protocol: as §1

HaCaT cells = experiment: Test Example 2: lumen formation rate in HaCaT cell clusters in collagen gel with oleic acid; format: cell-based, human; conditions: oleic acid 0.05 volume %, peptide 0.0001 mass %, cultured 4 days
Protocol: In the following experiment, DH10 was used as a medium of Experimental No. 8. […] HaCaT cells were cultured in the DH10 medium at 37° C. in a 5 volume % carbon dioxide atmosphere. Next, the obtained HaCaT cells were suspended in 350 μL of DH10 medium containing 1000 U/mL DNase I (produced by Sigma Aldrich Co.). While rotating the obtained suspended solids in a 24-well dish (produced by Corning Inc., super-low adhesion surface) at 100 min^−1, gyratory culturing was performed for 24 hours at 37° C. in a 5 volume % carbon dioxide atmosphere to form a smooth, round cell aggregate. The formed cell aggregate was embedded in a high-density collagen gel prepared with a 0.5 mass % collagen solution (type IA) (produced by Koken Co., Ltd.). Next, the cell aggregate after embedding was cultured for 4 days in a 5 volume % carbon dioxide atmosphere at 37° C. in the medium of Experimental Nos. 8, 9, 10, or 11 to form a cell cluster. The morphology of the obtained cell cluster was observed by a phase-contrast microscope. In the cell cluster, the outermost layer cells maintain the undifferentiated state because they are in contact with collagen; however, in general, cells that are located inside the undifferentiated cells of the outermost layer promptly start differentiation, and undergo anoikis. […]

HaCaT-EPM cells [4] = experiment: Test Example 3: lumen formation rate in HaCaT-EPM cell clusters in collagen gel; format: cell-based, human; conditions: peptide 0.0001 mass %, cultured 4 days
Protocol: In the following experiment, DH10 medium was used as the medium of Experimental No. 12. 1 μL of purified water was added to 1 mL of DH10 medium to obtain a medium (Experimental No. 13).
Except for using the HaCaT-EPM cells obtained in Production Example 3 in place of the HaCaT cells in Test Example 2, and the medium of Experimental No. 12, 13, 14, or 15 in place of the medium of Experimental No. 8, 9, 10, or 11 in Test Example 2, the same procedure as in Test Example 2 was performed to calculate a lumen formation rate.

[5] = system: differentiated cellular architecture containing HaCaT cells; experiment: Test Example 7: tissue morphology of differentiated cellular architecture containing HaCaT cells treated with oleic acid (parakeratosis); format: cell-based, human; conditions: 5 μL 0.5 volume % oleic acid-containing ethanol solution and 5 μL sample with peptide 0.001 mass %; one day
Protocol: In the following experiment, DH10 medium was used as a medium of Experimental No. 36. 1 μL of purified water was added to 1 mL of DH10 medium to obtain a sample (Experimental No. 37). Further, the cyclic peptide compound obtained in Example 1 was added to DH10 medium to a concentration of 0.001 mass % to obtain a sample (Experimental No. 38). Furthermore, the linear peptide obtained in Comparative Example 1 was added to DH10 medium to a concentration of 0.001 mass %, to obtain a sample (Experimental No. 39). MRC-5 cells, which are human fetal lung fibroblast cells, were cultured in 10 mL of α-MEM (produced by Gibco Laboratories containing 10 mass % heat inactivated FCS at 37° C. in a 5 volume % carbon dioxide atmosphere for 72 hours. A support (produced by BD Bioscience Co., Ltd.; trade name: cell culture insert) was provided in each well of a 24 well culture plate. In the support, the MRC-5 cells and a collagen gel mixed solution (collagen type I, produced by Nitta Gelatin, Inc.) were mixed. The obtained mixture was formed into a gel to obtain a cell-embedded gel (1.7×10^5/mL). 0.05 ml of a 1 mg/mL fibronectin aqueous solution (produced by BD Biosciences was added to the upper surface of the obtained cell-embedded gel, and the cell-embedded gel was allowed to stand for 1 hour at room temperature. […]

HaCaT-EPM cells [6] = experiment: Test Example 1: effect on HaCaT-EPM cell growth (WST-1, Cell Counting Kit); format: cell-based, human; design: key to Score (growth recovery of HaCaT-EPM cells): ++: Compared to the case of using the control, significant growth recovery of HaCaT-EPM cells was detected (P≦0.01).; +: Compared to the case of using the control, significant growth recovery of HaCaT-EPM cells was detected (P≦0.05).; −: Significant growth recovery of HaCaT-EPM cells was not detected; conditions: peptide 0.001 mass % in DH10 medium
Protocol: The cyclic peptide compound obtained in Example 1 was added to purified water to a concentration of […] to obtain a sample. The obtained sample was then added to DH10 medium in such an amount as to achieve a concentration of the cyclic peptide compound obtained in Example 1 of 0.001 mass %. The HaCaT-EPM cells obtained in Production Example 3 were cultured in the obtained medium at 37° C. in a 5 volume % carbon dioxide atmosphere, and the cells were collected over time. After adding 110 μL of a mixture of solution B with reagent A (trade name: “WST-1, ” produced by Dojindo) (the reagent A/Solution B ratio by volume=10/1) provided with a cell counter kit (trade name: “Cell Counting Kit,” produced by Dojindo), the collected cells were incubated for 3 hours. The absorbance of the obtained mixture at 450 nm was measured using a spectrophotometer (trade name: “ARVOtmS X 1420 Multilabel Counter,” produced by Wallac), and the effect of the mixture on the HaCaT-EPM cell growth was investigated. As a control, the above procedure was repeated, except that purified water was used in place of the cyclic peptide compound obtained in Example 1, and the effect on the growth of HaCaT-EPM cells was investigated. […]

Compound	secreted epimorphin in PT67-TE cell culture supernatant [1]	level of expression of endogenous epimorphin in HaCaT cells [2]	secreted epimorphin in HaCaT-TE cell culture supernatant [3]	lumen formation rate in cell clusters (HaCaT cells)	lumen formation rate in cell clusters (HaCaT-EPM cells [4])	tissue morphology of the cell construct (nucleus; parakeratosis caused by oleic acid) [5]	growth of HaCaT-EPM cells (HaCaT-EPM cells [6])	Score (growth recovery of HaCaT-EPM cells) (HaCaT-EPM cells [6]; compared to purified water control, absorbance at 450 nm)
CCCCCCCC/C=C\CCCCCCCC(=O)O [oleic acid]	not detected	does not substantially affect	induces secretion of epimorphin					
SIEQSCD [Comparative Example 1]				low lumen formation rate	low lumen formation rate	a nucleus could be observed	grew poorly	−
